Biological target: T1, Human eIF4E (aa 28-217) / biotin labeled 4G2 peptide (Homo sapiens, UniProt P06730)
T1 construct: Human eIF4E (aa 28-217) with a C-terminal His-tag; made in house
Assay: Human eIF4E/4G2 binding assay (TR-FRET)
Conditions: TR-FRET eIF4E/4G2 peptide binding; 4 hours preincubation with eIF4E at room temperature
Method: Example 3. Compound Testing in Human eIF4E/4G2 Binding Assay
Human eIF4E (aa 28-217) with a C-terminal His-tag was expressed in E. coli in inclusion bodies. The protein was solubilized with 8 M urea and purified under denaturing conditions using nickel-charged HisTrap HP columns (GE Healthcare). The purified protein was then refolded by diluting in 20 mM Hepes pH 7.0, 0.5 M NaCl, 1 mM DTT, 1 mM EDTA, 0.5 M arginine plus 6 M urea, and then dialyzing overnight into the same buffer without the urea. The protein was further dialyzed into 20 mM Hepes, pH 6.5, 50 mM NaCl, 1 mM EDTA, 1 mM DTT, and concentrated using Hitrap SP sepharose FF columns (GE Healthcare). The concentrated protein was dialyzed into 20 mM Hepes, pH 7.0, 0.5M NaCl, 5 mM DTT and 10% glycerol, and stored at −80° C. until use.
Test compounds (3.43 mM stock in DMSO) were diluted 2-fold in series in DMSO (10 concentration points). Compound solutions (1.2 μl/well) were added into black 384-well polypropylene microplates (Matrix, Thermal Scientific). Twenty-two microliters per well of Assay Buffer (50 mM NaPi, pH 6.5, 50 mM KCl, 1 mM DTT and 0.5 mg/ml gamma globulin) and eight microliters per well of 82.5 nM purified eIF4E in Assay Buffer were added. The samples were incubated at room temperature (20-23° C.) for 4 hours. Biotin labeled 4G2 peptide (Ac-Lys-Gln-Tyr-Asp-Arg-Glu-Phe-Leu-Leu-Asp-Phe-Gln-Phe-Met-Pro-Lys(Aha-Bio)-NH2, 1.75 μM stock in DMSO) was diluted to 0.14 μM in Assay Buffer (without DTT) and 5 μl/well was added. The samples were incubated at room temperature for 20 min. Five microliters per well of 6.4 nM Eu-streptavidin (Eu-SA, Perkin Elmer) and 80 nM Allophycocyanin (APC)-anti His antibody (Columbia Biosciences) in Assay Buffer (without DTT) were then added and the samples were incubated at room temperature for 20 min.
Assay signals were monitored by reading excitation at 340 nm and emission fluorescence at 615 nm and 665 nm on an Envision reader (Perkin Elmer). Normalized TR-FRET (time-resolved fluorescence resonance energy transfer) assay signal (Rn) was calculated by the formula: Rn=[(A−Ba−C×D)/(D−Bd)]×(Dc−Bd) Where A is the fluorescence intensity of the sample at 665 nm, D is the fluorescence intensity of the sample at 615 nm, Ba and Bd are plate backgrounds at 665 nm and 615 nm, respectively, Dc is the fluorescence intensity of 0.78 nM Eu-SA in the assay buffer at 615 nm The cross-talk factor (C) is determined by the following formula: C=(Ac−Ba)/(Dc−Bd) Where Ac is the fluorescence intensity of 0.78 nM Eu-SA in the assay buffer at 665 nm.
IC50 values were calculated using xLFit program (IDBS). Table 3 below lists IC50 of some compounds, wherein A represents IC50<0.5 μM; B represents 500 nM<IC50<1 μM; and C represents IC50>1 μM.

T1 sequence (P06730 28-217): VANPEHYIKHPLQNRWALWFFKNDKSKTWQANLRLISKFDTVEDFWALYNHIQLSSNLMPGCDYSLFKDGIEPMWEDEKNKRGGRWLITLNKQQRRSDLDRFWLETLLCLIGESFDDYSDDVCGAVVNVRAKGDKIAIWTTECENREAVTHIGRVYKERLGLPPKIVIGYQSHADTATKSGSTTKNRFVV

IC50 [µM] | SMILES
< 0.5 | CC(C)CCc1nc(Nc2ncc(-c3cccs3)cc2C(=O)O)sc1-c1ccc(Cl)c(Cl)c1 [I-3]
< 0.5 | CC(C)CCc1nc(Nc2ccsc2C(=O)O)sc1-c1ccc(Cl)c(Cl)c1 [I-5]
< 0.5 | CC(C)CCc1nc(Nc2cc(-c3ccccc3)sc2C(=O)O)sc1-c1ccc(Cl)c(Cl)c1 [I-6]
< 0.5 | CC(C)CCc1nc(Nc2ncccc2C(=O)O)sc1-c1ccc(Cl)c(Cl)c1 [I-7]
< 0.5 | CC(C)CCc1nc(Nc2ncc(-c3cccs3)cc2C(=O)O)sc1-c1ccccc1 [I-8]
0.5 to 1 | CC(C)CCc1nc(Nc2ncc(-c3cccs3)cc2C(=O)O)sc1-c1ccc(S(C)(=O)=O)cc1 [I-9]
< 0.5 | CC(C)CCc1nc(Nc2cc(C3CCCC3)sc2C(=O)O)sc1-c1ccc(Cl)c(Cl)c1 [I-11]
< 0.5 | CC(C)CCc1nc(Nc2cc(C3CCCC3)sc2C(=O)O)sc1-c1ccc(Oc2ccccc2)cc1 [I-12]
< 0.5 | CC(C)CCc1nc(Nc2cc(C3CCCC3)sc2C(=O)O)sc1-c1ccc(-n2ccccc2=O)cc1 [I-13]
< 0.5 | CC(C)CCc1nc(Nc2ncc(-c3cccs3)cc2C(=O)O)sc1-c1ccc(Oc2ccccc2)cc1 [I-14]
< 0.5 | CC(C)CCc1nc(Nc2ncc(C(F)(F)F)cc2C(=O)O)sc1-c1ccc(-c2ccccn2)cc1 [I-15]
> 1 | CC(C)CCc1nc(Nc2ncc(C(F)(F)F)cc2C(=O)O)sc1-c1ccc(N2CCOCC2)cc1 [I-16, 2-(4-Isopentyl-5-(4-Morpholinophenyl)Thiazol-2-Ylamino)-5-(trifluoromethyl)nicotinic acid]
< 0.5 | CC(C)CCc1nc(Nc2ncc(-c3cccs3)cc2C(=O)O)sc1-c1ccc(OC(F)(F)F)cc1 [I-17]
< 0.5 | CC(C)CCc1nc(Nc2cc(C3CCCC3)sc2C(=O)O)sc1-c1ccc(OC(F)(F)F)cc1 [I-18]
< 0.5 | CC(C)Cc1nc(Nc2ncc(C(F)(F)F)cc2C(=O)O)sc1-c1ccc2ccccc2c1 [I-30]
< 0.5 | CC(C)c1nc(Nc2ncc(C(F)(F)F)cc2C(=O)O)sc1-c1ccc(-c2ccccc2)cc1 [I-38]
< 0.5 | CC(C)c1nc(Nc2ncc(C(F)(F)F)cc2C(=O)O)sc1-c1ccc(OCc2ccccc2)cc1 [I-45]
< 0.5 | COc1ccc(-c2sc(Nc3ncc(-c4cccs4)cc3C(=O)O)nc2C2CC2)cc1 [I-54]

More lines, now with the values behind:

SMILES | IC50 [µM]
CC(C)c1nc(Nc2ncc(C(F)(F)F)cc2C(=O)O)sc1-c1ccc(Cl)c(Cl)c1 [I-1, 2-(5-(3,4-Dichlorophenyl)-4-Isopropylthiazol-2-Ylamino)-5-(trifluoromethyl)nicotinic acid] | < 0.5
CC(C)c1nc(Nc2ncc(-c3cccs3)cc2C(=O)O)sc1-c1ccc(Cl)c(Cl)c1 [I-2, 2-(5-(3,4-Dichlorophenyl)-4-Isopropylthiazol-2-Ylamino)-5-(Thiophen-2-yl)nicotinic acid] | < 0.5
CC(C)CCc1nc(Nc2ncc(C(F)(F)F)cc2C(=O)O)sc1-c1ccc(Cl)c(Cl)c1 [I-4] | < 0.5
CC(C)CCc1nc(Nc2ncc(C(F)(F)F)cc2C(=O)O)sc1-c1ccc(S(C)(=O)=O)cc1 [I-10] | 0.5 to 1
CC(C)c1nc(Nc2ncc(C(F)(F)F)cc2C(=O)O)sc1-c1ccc2ccccc2c1 [I-19] | 0.5 to 1
CC(C)c1nc(Nc2ncc(C(F)(F)F)cc2C(=O)O)sc1-c1cccc2ccccc12 [I-20] | 0.5 to 1
CC(C)c1nc(Nc2ncc(C(F)(F)F)cc2C(=O)O)sc1-c1cccs1 [I-21] | 0.5 to 1
CC(C)c1nc(Nc2ncc(C(F)(F)F)cc2C(=O)O)sc1-c1ccsc1 [I-22] | 0.5 to 1
CC(C)c1nc(Nc2ncc(C(F)(F)F)cc2C(=O)O)sc1C1=CCCCC1 [I-23] | 0.5 to 1
CC(C)c1nc(Nc2ncc(C(F)(F)F)cc2C(=O)O)sc1-c1ccc(-c2cccs2)cc1 [I-24, 2-(4-Isopropyl-5-(4-(Thiophen-2-Yl)Phenyl)Thiazol-2-Ylamino)-5-(trifluoromethyl)nicotinic acid] | < 0.5
CC(C)c1nc(Nc2ncc(C(F)(F)F)cc2C(=O)O)sc1-c1ccc(C(F)(F)F)cc1 [I-25] | 0.5 to 1
CC(C)c1nc(Nc2ncc(-c3ccccc3)cc2C(=O)O)sc1C1=CCCCC1 [I-27, 2-(5-cyclohexenyl-4-isopropylthiazol-2-ylamino)-5-phenylnicotinic acid] | 0.5 to 1
CC(C)c1nc(Nc2ncc(C(F)(F)F)cc2C(=O)O)sc1-c1ccc(Cl)cc1Cl [I-31, 2-(5-(2,4-dichlorophenyl)-4-isopropylthiazol-2-ylamino)-5-(trifluoromethyl)nicotinic acid] | 0.5 to 1
CC(C)c1nc(Nc2ncc(C(F)(F)F)cc2C(=O)O)sc1-c1csc2ccccc12 [I-32, 2-(5-(benzo[b]thiophen-3-yl)-4-isopropylthiazol-2-ylamino)-5-(trifluoromethyl)nicotinic acid] | 0.5 to 1
CC(C)c1nc(Nc2ncc(C(F)(F)F)cc2C(=O)O)sc1-c1ccc(C(F)(F)F)cc1Cl [I-33] | 0.5 to 1
CC(C)c1ccc(-c2sc(Nc3ncc(C(F)(F)F)cc3C(=O)O)nc2C(C)C)cc1 [I-34] | 0.5 to 1
CC(C)c1nc(Nc2ncc(C(F)(F)F)cc2C(=O)O)sc1-c1ccc(C(C)(C)C)cc1 [I-35] | < 0.5

SMILES | IC50 [µM]
CC(C)c1nc(Nc2ncc(C(F)(F)F)cc2C(=O)O)sc1-c1ccc(F)cc1F [I-36] | 0.5 to 1
CC(C)c1nc(Nc2ncc(C(F)(F)F)cc2C(=O)O)sc1-c1ccc(Cl)cc1F [I-37, 2-(5-(4-chloro-2-fluorophenyl)-4-isopropylthiazol-2-ylamino)-5-(trifluoromethyl)nicotinic acid] | 0.5 to 1
CC(C)c1nc(Nc2ncc(C(F)(F)F)cc2C(=O)O)sc1-c1ccc(C(F)(F)F)c(F)c1 [I-39] | < 0.5
COc1cc(Cl)ccc1-c1sc(Nc2ncc(C(F)(F)F)cc2C(=O)O)nc1C(C)C [I-40] | 0.5 to 1
COc1ccc(-c2sc(Nc3ncc(C(F)(F)F)cc3C(=O)O)nc2C(C)C)cc1 [I-41] | 0.5 to 1
COc1ccc(-c2sc(Nc3ncc(C(F)(F)F)cc3C(=O)O)nc2C(C)C)cc1OC [I-42] | > 1
COc1ccc(-c2sc(Nc3ncc(C(F)(F)F)cc3C(=O)O)nc2C(C)C)cc1F [I-43] | 0.5 to 1
CC(C)c1nc(Nc2ncc(C(F)(F)F)cc2C(=O)O)sc1-c1ccc(OC(F)F)cc1 [I-44] | 0.5 to 1
CC(C)c1nc(Nc2ncc(C(F)(F)F)cc2C(=O)O)sc1-c1ccccn1 [I-46, 2-(4-isopropyl-5-(pyridin-2-yl)thiazol-2-ylamino)-5-(trifluoromethyl)nicotinic acid] | > 1
COc1ccc(-c2sc(Nc3ncc(C(F)(F)F)cc3C(=O)O)nc2C(C)C)c(OC)c1 [I-47] | > 1
CC(C)c1nc(Nc2ncc(C(F)(F)F)cc2C(=O)O)sc1-c1ccc(Cl)s1 [I-48] | 0.5 to 1
CC(C)c1nc(Nc2ncc(C(F)(F)F)cc2C(=O)O)sc1-c1ccc(-c2ccccc2)s1 [I-49] | < 0.5
COc1ccc(-c2sc(Nc3ncc(-c4cccs4)cc3C(=O)O)nc2C(C)C)cc1Cl [I-50] | 0.5 to 1
COc1ccc(-c2sc(Nc3ncc(C(F)(F)F)cc3C(=O)O)nc2C(C)C)cc1Cl [I-51] | 0.5 to 1
COc1ccc(-c2sc(Nc3ncc(-c4cccs4)cc3C(=O)O)nc2C2CC2)cc1Cl [I-52, 2-((5-(3-chloro-4-methoxyphenyl)-4-cyclopropylthiazol-2-yl)amino)-5-(thiophen-2-yl)nicotinic acid] | < 0.5
COc1ccc(-c2sc(Nc3ncc(-c4cccs4)cc3C(=O)O)nc2C)cc1Cl [I-53] | 0.5 to 1
COc1cc(-c2sc(Nc3ncc(-c4cccs4)cc3C(=O)O)nc2CC(C)C)ccc1F [I-55] | 0.5 to 1
